The values that follow come from US20220095648A1, “USE OF A THRAUSTOCHYTRID BIOMASS FOR MAINTAINING GUT BARRIER FUNCTION” (priority 2019, published 2022).

What is called IC50 is the concentration that inhibits the measured activity by half. Read a high IC50 as a need for much substance.

The test system of this test is Caco-2 cells. Nature of the test: TER of Caco-2 cells exposed to DON. The class given is cell-based. Here is the method:
Caco-2 cells were used as a model of intestinal epithelial cells. Cells were routinely grown in culture media (DMEM) supplemented with 10% fetal calf serum and 1% antibiotics (streptomycin penicillin solution). Cells were grown in 75 cm^2 ventilated flasks maintained at 37° C. in a 5% CO2 incubator. Cells were routinely passaged using trypsin-EDTA solution. For the assay, cells were seeded onto 12-well inserts (Thincert, Greiner, pore size 0.4 μm) at an initial density of 200,000 cells/cm^2 and let to differentiate for 10-14 days post-seeding before being used, with medium changes every two days. Cell differentiation was confirmed by reading the TER, using a Volt/Ohm meter (Millipore), at the beginning of the experiment, when the TER value reached 600 Ohm/cm^2. […]
After differentiation, Caco-2 cells were put in contact, during 48 or 72 h, with or without DON at different concentrations (0, 6.25, 12.5, 25, 50 or 100 μM), and with activated charcoal at 1% (w/v) as positive control, or with or without one of the microalgae preparation type at different concentrations (1, 5, or 20% v:v, final dilution), each added on the apical side. At the end of the incubation time, the TER was measured using a Volt/Ohm meter (Millipore), and results were expressed in percentages of the control put in contact with the same concentration of DON but not with the tested product (microalgae or charcoal). […]

Regarding `CC1=C[C@H]2O[C@@H]3[C@H](O)C[C@](C)([C@@]2(CO)[C@H](O)C1=O)[C@]31CO1` [DON, Deoxynivalenol], the “effect of DON only on the TER” value (DON 6.25-100 μM, more pronounced as concentration increased) is reported as “induced a reduction of the TER”. For the setting “IC50 of DON on TER, control without tested product, 48 h”, this compound came in with an IC50 of 11 µM.
